{"source": "patent US9481885B2", "about": "“Methods and compositions related to miR-21 and miR-29a, exosome inhibition, and cancer metastasis” (Ohio State Innovation Foundation, priority 2011, dated 2016)", "key": {"LLC cells": {"test_system": "LLC cells", "assay": "Lung multiplicities in LLC-injected B6 mice treated with GW4869, with exosome rescue", "type": "in vivo, mouse", "details": "WT B6 mice injected with LLC cells; GW4869 i.p. 1.25 mg/kg/d for 5 d", "method": "Finally, to assess the role of miRNAs released from lung cancer exosomes in TLR7 activation and in the metastatic process, the expression was silenced of miR-16 or of miR-21 and -29a combined in LLC cells by Locked Nucleic Acid (LNA) anti-miRNA inhibitors. After anti-miRNA transfection, the levels of the silenced miRNAs were reduced in the exosomes derived from these cells (FIG. 7F). The transfected cells were injected into the tail vein of B6 mice, and lung multiplicities were counted. […] We further investigated which miRNAs are expressed in cancer cells and adjacent normal lung tissues in mice injected with anti-scrambled LLCs or anti-miR-21/29a LLCs. Cancer cells in lung tumors developed by mice injected with anti-scrambled LLC were positive for the anti-scrambled oligonucleotide.\nThe in vivo rescue experiment with LLC cells was conducted in 15 male, 7-wk-old B6 mice. Mice were injected with 1.8×10^6 LLC cells in the tail vein in 300 μL of volume (T0). After 4 d (T4), i.p. injections were started for 10 mice with GW4869 (1.25 mgkg^−1d^−1), an inhibitor of exosome secretion also able to reduce the content of miRNAs in secreted exosomes, and of five mice with DMSO (a solvent of GW4869) as a control, daily for 5 d consecutively. […] All mice were killed at T18, necropsy was performed, and lung multiplicities were counted."}, "TLR8-HEK-293 cells": {"test_system": "TLR8-HEK-293 cells", "assay": "NF-κB activation in TLR8-HEK-293 cells treated with LLC exosomes, with or without Bafilomycin A", "type": "cell-based, human", "details": "TLR8-HEK-293 cells pretreated with 10 nM Bafilomycin A; P<0.0005", "method": "Next, LLC cells were injected into the tails of WT and TLR7^−/− mice and the overall survival of the animals and number of lung multiplicities after necropsy was assessed. […] For the experiment with Bafilomycin A, TLR8-HEK-293 cells were seeded in a 24-well plate at a density of 200,000 cells per well. The next day cells were preincubated with 10 nM Bafilomycin A (Sigma) for 30 min and then were treated for 24 h with exosomes purified from LLC cells in the presence or absence of 10 nM Bafilomycin A. Cell supernatants were collected and harvested, and the QUANTI-Blue Assay was performed. NF-κB activity was assessed by QUANTI-Blue Assay (Invivogen). HEK-Blue-TLR7 and TLR8 293 cells allow verification of the activation of NF-κB after the stimulation of the respective TLRs. Both these cell lines were obtained by co-transfection of the TLR7 and 8 genes and an optimized secreted embryonic alkaline phosphatase reporter gene (SEAP) under the control of the […] minimal promoter fused to five NF-κB and AP-1-binding sites into HEK-293 cells. […] Levels of SEAP can be easily determined with QUANTI-Blue, a detection medium that turns purple/blue in the presence of alkaline phosphatase. […] The plate was then incubated at 37° C. for 1-3 h and SEAP levels were determined by reading the plate with a spectrophotometer at 620-655 nm (SpectraMax, Molecular Devices)."}}, "data": [{"smiles": "O=C(/C=C/c1ccc(/C=C/C(=O)Nc2ccc(C3=NCCN3)cc2)cc1)Nc1ccc(C2=NCCN2)cc1", "note": "[GW4869]", "values": [{"measurement": "number of lung multiplicities", "setting": "LLC cells", "value": "significantly lower"}]}, {"smiles": "CO/C1=C\\C(C)=C\\[C@@H](C)[C@@H](O)[C@@H](C)C/C(C)=C/C=C/[C@H](OC)[C@@H]([C@@H](C)[C@@H](O)[C@H](C)[C@@]2(O)C[C@@H](O)[C@H](C)[C@@H](C(C)C)O2)OC1=O", "note": "[Bafilomycin A]", "values": [{"measurement": "NF-κB activation by LLC-derived exosomes in the presence of Bafilomycin A", "setting": "TLR8-HEK-293 cells", "value": "significantly reduced"}]}]}
